According to ChEMBL document CHEMBL4261644, “Novel Symmetrical Benzazolyl Derivatives Endowed with Potent Anti-Heparanase Activity” (J Med Chem, 2018):
The source made the active and inactive calls. No cut-off for these calls is given here.

Target: T1, Heparanase (Homo sapiens, UniProt Q9Y251)
T1 sequence (Q9Y251 whole entry): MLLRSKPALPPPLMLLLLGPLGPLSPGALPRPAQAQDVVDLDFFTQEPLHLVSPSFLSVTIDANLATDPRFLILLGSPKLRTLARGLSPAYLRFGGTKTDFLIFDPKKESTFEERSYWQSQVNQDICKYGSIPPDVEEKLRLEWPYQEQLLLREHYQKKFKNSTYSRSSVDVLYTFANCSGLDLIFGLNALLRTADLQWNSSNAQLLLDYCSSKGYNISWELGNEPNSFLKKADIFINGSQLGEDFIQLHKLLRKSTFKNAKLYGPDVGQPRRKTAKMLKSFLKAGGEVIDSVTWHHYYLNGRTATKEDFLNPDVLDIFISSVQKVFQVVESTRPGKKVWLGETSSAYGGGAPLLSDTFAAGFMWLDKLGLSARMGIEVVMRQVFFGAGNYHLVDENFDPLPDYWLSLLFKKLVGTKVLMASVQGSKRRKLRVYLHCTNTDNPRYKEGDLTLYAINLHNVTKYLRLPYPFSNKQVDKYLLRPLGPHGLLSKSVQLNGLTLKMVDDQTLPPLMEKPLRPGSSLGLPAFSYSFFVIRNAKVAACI
Experiment: Inhibition of recombinant HPSE (unknown origin) using fondaparinux as substrate incubated for 3 hrs in absence of light by WST1 assay
Conditions: not given

Row | IC50 [µM] | SMILES
1 | > 10 | O=C(O)Cc1ccc2oc(-c3cccc(NC(=O)Nc4cccc(-c5nc6cc(CC(=O)O)ccc6o5)c4)c3)nc2c1
2 | 6.02 | N=C(Nc1ccc(-c2nc3cc(CC(=O)O)ccc3o2)cc1)Nc1ccc(-c2nc3cc(CC(=O)O)ccc3o2)cc1
3 | 0.18 | O=C(O)Cc1ccc2oc(-c3ccc(NC(=O)Nc4ccc(-c5nc6cc(CC(=O)O)ccc6o5)cc4F)c(F)c3)nc2c1
4 | > 10 | O=C(O)Cc1cccc(NS(=O)(=O)c2ccc(NC(=O)Nc3ccc(S(=O)(=O)Nc4cccc(CC(=O)O)c4)cc3)cc2)c1

Tested on: HT-1080
Experiment: Antiproliferative activity against human HT1080 cells after 72 hrs by SRB assay
Assay type: cell-based
Conditions: ht-1080

Row | IC50 | SMILES
5 | Not Active | O=C(O)Cc1ccc2oc(-c3ccc(NC(=O)Nc4ccc(-c5nc6cc(CC(=O)O)ccc6o5)cc4F)c(F)c3)nc2c1

Tested on: U-87 MG
Experiment: Antiproliferative activity against human U87MG cells after 72 hrs by SRB assay
Assay type: cell-based, U-87MG ATCC
Conditions: u-87mg atcc

Row | IC50 | SMILES
6 | Not Active | O=C(O)Cc1ccc2oc(-c3ccc(NC(=O)Nc4ccc(-c5nc6cc(CC(=O)O)ccc6o5)cc4F)c(F)c3)nc2c1

Tested on: U2OS
Experiment: Antiproliferative activity against human U2OS cells after 72 hrs by SRB assay
Assay type: cell-based
Conditions: u2os

Row | IC50 | SMILES
7 | Not Active | O=C(O)Cc1ccc2oc(-c3ccc(NC(=O)Nc4ccc(-c5nc6cc(CC(=O)O)ccc6o5)cc4F)c(F)c3)nc2c1

Tested on: not listed separately
Experiment: Antiproliferative activity against HPSE-expressing human CME1 cells after 72 hrs by SRB assay
Assay type: functional
Conditions: not given

Row | SMILES | IC50 [µM]
8 | O=C(O)Cc1ccc2oc(-c3ccc(NC(=O)Nc4ccc(-c5nc6cc(CC(=O)O)ccc6o5)cc4F)c(F)c3)nc2c1 | 9.5

Tested on: HT-1080
Experiment: Anti-invasive activity in human HT1080 cells assessed as reduction in invasive potential at 10 uM after 24 hrs by matrigel invasion assay relative to control
Assay type: functional
Conditions: HT-1080, 24 h

Row | SMILES | inhibition at 10 µM [%]
9 | O=C(O)Cc1ccc2oc(-c3ccc(NC(=O)Nc4ccc(-c5nc6cc(CC(=O)O)ccc6o5)cc4F)c(F)c3)nc2c1 | < 50

Tested on: U-87 MG
Experiment: Anti-invasive activity in human U87MG cells assessed as reduction in invasive potential at 10 uM after 24 hrs by matrigel invasion assay relative to control
Assay type: functional, U-87MG ATCC
Conditions: not given

Row | SMILES | inhibition at 10 µM [%]
10 | O=C(O)Cc1ccc2oc(-c3ccc(NC(=O)Nc4ccc(-c5nc6cc(CC(=O)O)ccc6o5)cc4F)c(F)c3)nc2c1 | 50 to 90

Tested on: U2OS
Experiment: Anti-invasive activity in human U2OS cells assessed as reduction in invasive potential at 10 uM after 24 hrs by matrigel invasion assay relative to control
Assay type: functional
Conditions: not given

Row | SMILES | inhibition at 10 µM [%]
11 | O=C(O)Cc1ccc2oc(-c3ccc(NC(=O)Nc4ccc(-c5nc6cc(CC(=O)O)ccc6o5)cc4F)c(F)c3)nc2c1 | 50 to 90

Species on record: Homo sapiens
Experiment: Anti-invasive activity in human CME1 cells assessed as reduction in invasive potential after 24 hrs by matrigel invasion assay
Assay type: functional, cell-based
Conditions: not given

Row | SMILES | Activity
12 | O=C(O)Cc1ccc2oc(-c3ccc(NC(=O)Nc4ccc(-c5nc6cc(CC(=O)O)ccc6o5)cc4F)c(F)c3)nc2c1 | Dose-dependent effect

Species on record: Homo sapiens
Experiment: Anti-invasive activity in human CME1 cells assessed as reduction in invasive potential at […] uM after 72 hrs by matrigel invasion assay
Assay type: functional, cell-based
Conditions: not given

Row | SMILES | Activity
13 | O=C(O)Cc1ccc2oc(-c3ccc(NC(=O)Nc4ccc(-c5nc6cc(CC(=O)O)ccc6o5)cc4F)c(F)c3)nc2c1 | Active

Target: T2, Heparanase (Homo sapiens) (UniProt Q9Y251)
T2 sequence (whole entry): T1 sequence (Q9Y251 whole entry)
Experiment: Inhibition of HPSE in human HT1080 cells assessed as reduction in FGF1 mRNA expression after 24 hrs by qPCR analysis relative to control
Assay type: cell-based
Conditions: not given

Row | inhibition | SMILES
14 | Active | O=C(O)Cc1ccc2oc(-c3ccc(NC(=O)Nc4ccc(-c5nc6cc(CC(=O)O)ccc6o5)cc4F)c(F)c3)nc2c1

Target: T2, Heparanase (Homo sapiens)
Experiment: Inhibition of HPSE in human HT1080 cells assessed as reduction in FGF2 mRNA expression after 24 hrs by qPCR analysis relative to control
Assay type: cell-based
Conditions: not given

Row | inhibition | SMILES
15 | Active | O=C(O)Cc1ccc2oc(-c3ccc(NC(=O)Nc4ccc(-c5nc6cc(CC(=O)O)ccc6o5)cc4F)c(F)c3)nc2c1

Target: T2, Heparanase (Homo sapiens)
Experiment: Inhibition of HPSE in human HT1080 cells assessed as reduction in VEGF mRNA expression after 24 hrs by qPCR analysis relative to control
Assay type: cell-based
Conditions: not given

Row | inhibition | SMILES
16 | Active | O=C(O)Cc1ccc2oc(-c3ccc(NC(=O)Nc4ccc(-c5nc6cc(CC(=O)O)ccc6o5)cc4F)c(F)c3)nc2c1

Target: T2, Heparanase (Homo sapiens)
Experiment: Inhibition of HPSE in human HT1080 cells assessed as reduction in MMP9 mRNA expression after 24 hrs by qPCR analysis relative to control
Assay type: cell-based
Conditions: not given

Row | inhibition | SMILES
17 | Active | O=C(O)Cc1ccc2oc(-c3ccc(NC(=O)Nc4ccc(-c5nc6cc(CC(=O)O)ccc6o5)cc4F)c(F)c3)nc2c1

Target: T2, Heparanase (Homo sapiens)
Experiment: Inhibition of HPSE in human HT1080 cells assessed as reduction in HPSE mRNA expression after 24 hrs by qPCR analysis relative to control
Assay type: cell-based
Conditions: not given

Row | inhibition | SMILES
18 | Active | O=C(O)Cc1ccc2oc(-c3ccc(NC(=O)Nc4ccc(-c5nc6cc(CC(=O)O)ccc6o5)cc4F)c(F)c3)nc2c1

Species on record: Homo sapiens
Experiment: Anti-invasive activity in human CME1 cells assessed as reduction in invasive potential at […] uM after 24 hrs by matrigel invasion assay
Assay type: functional, cell-based
Conditions: not given

Row | SMILES | Activity
19 | O=C(O)Cc1ccc2oc(-c3ccc(NC(=O)Nc4ccc(-c5nc6cc(CC(=O)O)ccc6o5)cc4F)c(F)c3)nc2c1 | inactive
